Test results as given in ChEMBL document CHEMBL5346971, “Discovery of the First Irreversible HDAC6 Isoform Selective Inhibitor with Potent Anti-Multiple Myeloma Activity” (J Med Chem, 2023).
Calls of active or inactive are those of the source. The rule behind the calls is not given here.

Assays:
[1] = target: T1, Class 1 histone deacetylase (Homo sapiens) (UniProt Q13547+O15379+Q92769+Q9BY41); experiment: Inhibition of class 1 HDAC in human A549 cells assessed as acetyl histone H4 level at 2 uM incubated for 5 hrs by western blot analysis relative to control; type: cell-based
T1 sequence (O15379 whole entry, looked up, the tested form may be a part): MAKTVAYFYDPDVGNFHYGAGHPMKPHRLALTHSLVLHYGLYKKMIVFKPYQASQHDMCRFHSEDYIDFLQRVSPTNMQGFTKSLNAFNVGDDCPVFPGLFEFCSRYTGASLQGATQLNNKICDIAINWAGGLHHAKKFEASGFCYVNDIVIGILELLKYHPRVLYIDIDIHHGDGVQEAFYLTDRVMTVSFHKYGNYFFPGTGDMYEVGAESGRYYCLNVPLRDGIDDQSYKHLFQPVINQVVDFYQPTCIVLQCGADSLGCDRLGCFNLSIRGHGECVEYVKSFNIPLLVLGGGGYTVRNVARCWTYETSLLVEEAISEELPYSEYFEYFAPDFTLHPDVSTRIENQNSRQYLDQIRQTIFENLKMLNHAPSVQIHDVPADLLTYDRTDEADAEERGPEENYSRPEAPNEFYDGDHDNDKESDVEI
T1 sequence (Q13547 whole entry, looked up, the tested form may be a part): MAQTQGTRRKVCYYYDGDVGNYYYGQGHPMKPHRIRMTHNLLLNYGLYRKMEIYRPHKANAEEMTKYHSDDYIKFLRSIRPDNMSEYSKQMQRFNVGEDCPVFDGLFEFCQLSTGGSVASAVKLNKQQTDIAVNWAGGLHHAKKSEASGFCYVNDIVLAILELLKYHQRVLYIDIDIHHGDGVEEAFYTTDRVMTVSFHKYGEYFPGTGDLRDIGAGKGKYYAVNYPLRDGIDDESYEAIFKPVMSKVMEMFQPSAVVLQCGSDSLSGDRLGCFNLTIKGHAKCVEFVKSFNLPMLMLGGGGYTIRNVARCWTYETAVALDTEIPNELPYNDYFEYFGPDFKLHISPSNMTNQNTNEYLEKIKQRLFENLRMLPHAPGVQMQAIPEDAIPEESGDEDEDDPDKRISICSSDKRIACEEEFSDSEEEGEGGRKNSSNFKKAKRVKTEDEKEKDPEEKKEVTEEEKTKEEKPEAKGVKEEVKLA
T1 sequence (Q92769 whole entry, looked up, the tested form may be a part): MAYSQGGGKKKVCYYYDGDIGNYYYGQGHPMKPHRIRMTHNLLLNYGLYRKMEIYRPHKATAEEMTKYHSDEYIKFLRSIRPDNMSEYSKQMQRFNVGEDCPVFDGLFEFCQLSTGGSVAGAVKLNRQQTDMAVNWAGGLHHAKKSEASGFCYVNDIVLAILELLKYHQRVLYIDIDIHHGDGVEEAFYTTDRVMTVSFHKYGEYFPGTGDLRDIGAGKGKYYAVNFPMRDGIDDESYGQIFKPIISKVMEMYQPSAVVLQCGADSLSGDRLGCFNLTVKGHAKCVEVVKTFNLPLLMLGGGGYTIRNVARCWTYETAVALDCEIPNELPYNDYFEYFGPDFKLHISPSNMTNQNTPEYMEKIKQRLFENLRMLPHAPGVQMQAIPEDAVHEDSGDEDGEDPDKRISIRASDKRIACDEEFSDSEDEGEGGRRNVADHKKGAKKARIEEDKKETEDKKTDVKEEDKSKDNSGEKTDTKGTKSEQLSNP
T1 sequence (Q9BY41 whole entry, looked up, the tested form may be a part): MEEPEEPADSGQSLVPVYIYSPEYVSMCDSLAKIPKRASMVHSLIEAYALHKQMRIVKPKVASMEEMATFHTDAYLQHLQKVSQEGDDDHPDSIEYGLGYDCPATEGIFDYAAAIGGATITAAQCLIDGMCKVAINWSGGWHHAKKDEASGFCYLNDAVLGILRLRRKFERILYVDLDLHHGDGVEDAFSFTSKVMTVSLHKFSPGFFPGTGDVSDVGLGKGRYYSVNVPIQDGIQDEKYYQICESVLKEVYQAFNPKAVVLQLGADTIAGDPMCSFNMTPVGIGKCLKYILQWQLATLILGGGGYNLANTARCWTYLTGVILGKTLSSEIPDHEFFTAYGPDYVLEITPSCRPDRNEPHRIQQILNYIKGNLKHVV

[2] = target: T2, Protein deacetylase HDAC6 (Homo sapiens, UniProt Q9UBN7); experiment: Inhibition of N-terminal GST-tagged human full length recombinant HDAC6 (1 to 1215 residues) expressed in Sf9 cells using Boc-Lys(acetyI)-AMC as substrate preincubated with enzyme for 1 hr followed by substrate addition and measured after 30 mins by fluorescence based analysis
T2 sequence (Q9UBN7 whole entry): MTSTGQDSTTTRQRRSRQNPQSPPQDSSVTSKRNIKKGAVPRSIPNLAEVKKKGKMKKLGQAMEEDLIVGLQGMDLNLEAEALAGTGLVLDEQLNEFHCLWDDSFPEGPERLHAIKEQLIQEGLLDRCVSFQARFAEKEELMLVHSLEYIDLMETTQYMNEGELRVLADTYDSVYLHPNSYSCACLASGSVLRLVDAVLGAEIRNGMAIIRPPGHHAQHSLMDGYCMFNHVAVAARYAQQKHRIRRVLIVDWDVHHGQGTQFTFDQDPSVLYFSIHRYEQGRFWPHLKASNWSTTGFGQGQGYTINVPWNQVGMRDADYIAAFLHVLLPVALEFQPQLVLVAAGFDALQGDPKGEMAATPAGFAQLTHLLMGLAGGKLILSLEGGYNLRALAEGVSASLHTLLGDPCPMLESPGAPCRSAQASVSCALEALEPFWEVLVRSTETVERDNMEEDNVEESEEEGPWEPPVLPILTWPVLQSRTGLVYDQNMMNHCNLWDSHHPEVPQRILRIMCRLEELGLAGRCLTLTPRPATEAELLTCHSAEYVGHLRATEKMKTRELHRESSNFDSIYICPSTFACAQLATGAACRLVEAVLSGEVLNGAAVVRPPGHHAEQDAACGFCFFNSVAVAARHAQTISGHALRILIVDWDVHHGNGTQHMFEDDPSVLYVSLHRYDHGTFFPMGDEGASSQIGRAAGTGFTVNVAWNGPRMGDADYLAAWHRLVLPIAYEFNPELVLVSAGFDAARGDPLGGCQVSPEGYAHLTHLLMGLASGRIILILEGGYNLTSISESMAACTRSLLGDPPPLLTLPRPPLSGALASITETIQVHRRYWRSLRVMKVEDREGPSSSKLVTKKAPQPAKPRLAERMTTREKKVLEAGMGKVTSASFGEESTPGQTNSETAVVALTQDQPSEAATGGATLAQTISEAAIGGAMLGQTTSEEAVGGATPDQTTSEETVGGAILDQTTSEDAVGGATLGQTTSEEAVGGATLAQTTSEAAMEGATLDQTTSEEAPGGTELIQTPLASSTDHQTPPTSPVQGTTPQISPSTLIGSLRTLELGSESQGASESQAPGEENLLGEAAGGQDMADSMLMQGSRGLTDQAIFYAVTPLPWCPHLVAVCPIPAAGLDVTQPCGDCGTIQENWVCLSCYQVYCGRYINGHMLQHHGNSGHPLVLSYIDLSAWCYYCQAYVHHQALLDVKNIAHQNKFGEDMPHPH

[3] = target: T1, Class 1 histone deacetylase (Homo sapiens); experiment: Irreversible inhibition of class 1 HDAC in human A549 cells assessed as acetyl histone H4 level at 0.4 uM incubated for 5 hrs followed by drug wash-out for 24 hrs by western blot analysis relative to control; type: cell-based
[4] = target: T1, Class 1 histone deacetylase (Homo sapiens); experiment: Irreversible inhibition of class 1 HDAC in human A549 cells assessed as acetyl histone H3 level at 0.4 uM incubated for 5 hrs followed by drug wash-out and measured immediately after drug wash-out by western blot analysis relative to control; type: cell-based
[5] = target: T3, Protein deacetylase HDAC6 (Homo sapiens) (UniProt Q9UBN7); experiment: Irreversible inhibition of HDAC6 in human A549 cells assessed as acetyl alpha-tubulin level at 0.4 uM incubated for 5 hrs followed by drug wash-out and measured immediately after drug wash-out by western blot analysis relative to control; type: cell-based
T3 sequence (whole entry): T2 sequence (Q9UBN7 whole entry)

[6] = target: T3, Protein deacetylase HDAC6 (Homo sapiens); experiment: Irreversible inhibition of HDAC6 in human A549 cells assessed as acetyl alpha-tubulin level at 0.4 uM incubated for 5 hrs followed by drug wash-out for 24 hrs by western blot analysis relative to control; type: cell-based
Histone deacetylase 5 = Histone deacetylase 5 (Homo sapiens, UniProt Q9UQL6); experiment: Inhibition of C-terminal His-tagged human recombinant HDAC5 catalytic domain (656 to 1122 residues) expressed in baculovirus-infected Sf9 cells using Boc-Lys(trifluoroacety1)-AMC as substrate preincubated with enzyme for 1 hr followed by substrate addition and measured after 30 mins by fluorescence based analysis
Chain of Histone deacetylase 5 (Q9UQL6 whole entry, the tested form may be a part): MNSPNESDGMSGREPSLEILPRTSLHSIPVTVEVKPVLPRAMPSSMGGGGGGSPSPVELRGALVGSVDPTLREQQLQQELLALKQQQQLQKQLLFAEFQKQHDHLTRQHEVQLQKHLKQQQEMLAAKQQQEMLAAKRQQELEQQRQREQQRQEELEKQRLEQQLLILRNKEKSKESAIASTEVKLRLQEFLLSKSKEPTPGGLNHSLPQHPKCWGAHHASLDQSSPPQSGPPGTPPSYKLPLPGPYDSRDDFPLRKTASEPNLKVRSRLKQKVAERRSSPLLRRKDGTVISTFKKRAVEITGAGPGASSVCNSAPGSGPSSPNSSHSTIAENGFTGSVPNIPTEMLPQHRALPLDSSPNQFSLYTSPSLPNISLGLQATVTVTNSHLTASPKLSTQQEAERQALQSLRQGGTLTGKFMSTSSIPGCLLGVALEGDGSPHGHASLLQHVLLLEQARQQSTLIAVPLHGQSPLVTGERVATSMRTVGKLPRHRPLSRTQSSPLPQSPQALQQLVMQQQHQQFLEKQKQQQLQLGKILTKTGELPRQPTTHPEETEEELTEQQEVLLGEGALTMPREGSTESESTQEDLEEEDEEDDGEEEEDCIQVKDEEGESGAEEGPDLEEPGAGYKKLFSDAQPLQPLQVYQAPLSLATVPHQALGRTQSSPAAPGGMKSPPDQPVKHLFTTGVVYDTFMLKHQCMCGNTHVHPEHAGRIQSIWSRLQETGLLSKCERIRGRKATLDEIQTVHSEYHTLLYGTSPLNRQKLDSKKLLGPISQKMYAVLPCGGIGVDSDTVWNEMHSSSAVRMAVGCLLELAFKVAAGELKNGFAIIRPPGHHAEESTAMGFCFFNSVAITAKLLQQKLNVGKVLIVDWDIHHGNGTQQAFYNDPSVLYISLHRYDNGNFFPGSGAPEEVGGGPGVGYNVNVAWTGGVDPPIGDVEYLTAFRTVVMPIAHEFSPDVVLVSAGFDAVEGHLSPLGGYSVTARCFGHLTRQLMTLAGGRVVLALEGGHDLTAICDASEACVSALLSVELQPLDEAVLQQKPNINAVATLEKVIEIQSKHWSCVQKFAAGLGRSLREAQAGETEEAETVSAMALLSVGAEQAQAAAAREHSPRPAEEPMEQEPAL

RPMI-8226 [7] = experiment: Induction of apoptosis in human RPMI-8226 cells assessed as proportion of late apoptotic cells at 0.1 uM incubated for 24 hrs by AnnexinV-FITC/PI staining based flow cytometry (reference value: 4.18%); type: functional, cell-based
RPMI-8226 [8] = experiment: Induction of apoptosis in human RPMI-8226 cells assessed as proportion of viable cells at 0.5 uM incubated for 24 hrs by AnnexinV-FITC/PI staining based flow cytometry (reference value: 84.71%); type: functional, cell-based
[9] = Metabolic stability of the compound in human liver microsomes assessed as parent compound remaining measured after 60 mins in presence of NADPH by LC-MS/MS analysis; type: ADME, Microsome; settings: read-out: Stability
[10] = Intrinsic clearance in rat liver microsomes in presence of NADPH by LC-MS/MS analysis; type: ADME, Microsome; settings: read-out: CLH
[11] = Intrinsic clearance in mouse liver microsomes in presence of NADPH by LC-MS/MS analysis; type: ADME, Microsome; settings: read-out: CLH
[12] = Toxicity in NCG mouse xenografted with human RPMI-8226 cells assessed as body weight loss at 10 ug administered intratumorally every 2 days; settings: in vivo, other, 48 h, route it(Intratumoral), dose 10 µg

fold change (FC) [1]: 1.6
IC50 [2]: 33 nM
fold change (FC) [3]: 0.6
fold change (FC) [4]: 1
fold change (FC) [5]: 5.2
fold change (FC) [6]: 4.3
IC50 (Histone deacetylase 5): > 40000 nM
remaining at 1 h [9]: < 0.33%
CLint scaled [10]: 270 mL/min/kg
CLint scaled [11]: 2990 mL/min/kg
Compound: O=C(NO)c1ccc(COc2no[n+]([O-])c2S(=O)(=O)c2ccccc2)cc1
Activity (RPMI-8226 [7]): Active
Activity (RPMI-8226 [8]): Active
Activity [12]: Non-Toxic
